Source: patent US7723358B2, “Aroyl-O-piperidine derivatives for the treatment of diabetes-related problems” (Merck Patent GmbH, priority 2004, dated 2010)

What was measured:
[1] = target: T1, microsomal triglyceride transfer protein (MTP) (Mesocricetus auratus, UniProt P55158); assay: Inhibition of MTP activity: transfer of [3H]-triolein from donor liposomes to biotinylated LDL, SPA; format: biochemical; conditions: MTP from golden hamster liver; incubation 18-24 hours at 37° C.; read-out: IC50, concentration that allows a 50% inhibition of MTP
T1 construct: The supernatant comprising the soluble MTP is dialysed against Tris/HCl 150 mM; from tissue; host or cells: golden hamster liver microsomes, deoxycholate-solubilised supernatant, dialysed
T1 sequence (P55158 19-895): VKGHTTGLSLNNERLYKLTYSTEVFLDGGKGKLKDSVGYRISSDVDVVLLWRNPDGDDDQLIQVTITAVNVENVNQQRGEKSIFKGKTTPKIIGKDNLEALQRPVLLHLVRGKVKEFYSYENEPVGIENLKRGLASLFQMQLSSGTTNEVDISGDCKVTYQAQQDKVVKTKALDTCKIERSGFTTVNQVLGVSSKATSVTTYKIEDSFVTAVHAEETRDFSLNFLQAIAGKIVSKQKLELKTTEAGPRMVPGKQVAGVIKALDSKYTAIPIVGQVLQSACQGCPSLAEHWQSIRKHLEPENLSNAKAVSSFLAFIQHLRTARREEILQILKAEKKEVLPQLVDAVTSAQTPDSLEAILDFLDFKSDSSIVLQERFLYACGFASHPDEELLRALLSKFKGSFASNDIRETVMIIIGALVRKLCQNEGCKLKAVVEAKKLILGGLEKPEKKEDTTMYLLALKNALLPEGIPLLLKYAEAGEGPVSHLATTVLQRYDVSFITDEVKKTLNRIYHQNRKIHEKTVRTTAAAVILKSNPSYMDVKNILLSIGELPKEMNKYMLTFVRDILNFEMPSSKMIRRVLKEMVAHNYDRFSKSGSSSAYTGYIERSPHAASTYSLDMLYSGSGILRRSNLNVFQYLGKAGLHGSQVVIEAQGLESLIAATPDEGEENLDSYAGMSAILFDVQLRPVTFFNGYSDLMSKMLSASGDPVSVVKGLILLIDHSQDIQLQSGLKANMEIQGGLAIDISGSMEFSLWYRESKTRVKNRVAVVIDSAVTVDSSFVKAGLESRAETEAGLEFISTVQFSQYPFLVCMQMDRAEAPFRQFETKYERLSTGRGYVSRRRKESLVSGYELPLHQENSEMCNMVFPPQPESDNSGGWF
How it was run: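 Soluble MTP was extracted with deoxycholate from golden hamster liver microsomes. It was incubated with [3H]-triolein/phosphatidylcholine donor liposomes, biotinylated LDL acceptors and compound in DMSO in HEPES/NaCl/BSA buffer, pH 7.4, for 18-24 h at 37° C. Transfer was read with streptavidin SPA beads, and IC50 was taken as 50% inhibition of transfer.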

[2] = test system: apo B secretion in HepG2 cells; assay: Secretion of apo B in the HepG2 human cell line (sandwich-ELISA); format: cell-based; conditions: 24 hours incubation, culture supernatant, read-out: IC50, concentration that produces a 50% inhibition of apo B secretion in the HepG2 cells
Description: Analysis of the Secretion of apo B in the HepG2 Human Cell Line:
The activity of a compound according to the invention can be evaluated by measuring the inhibition of apo B secretion in HepG2 cells.
The HepG2 cells (ECACC—No. 85011430) are used as model in the study of the in vitro hepatic secretion of lipoproteins (Dixon J. and Ginsberg H., J., Lipid. Res., 1993, 34, 167-179).
The HepG2 cells are cultured in Dulbecco's modified Eagle's medium comprising 10% foetal calf serum (DMEM and FBS—Gibco) in 96-well plates under an atmosphere of 5% carbon dioxide for 24 hours (about 70% confluence).
The test compounds are dissolved at a concentration of 2 or 10 mM in dimethyl sulfoxide (DMSO). Serial dilutions (1:3.16) are made in DMSO and are added (1:200—Robot Multimek Beckman) to the growth medium (200 μL) and then finally incubated for 24 hours in the various wells containing the HepG2 cells.
The 24-hour culture supernatant diluted to 1:5 (phosphate-buffered saline:PBS comprising 1% bovine serum albumin) is tested according to a sandwich-ELISA method specific for human apo B.
The results are expressed in terms of IC50, i.e. the concentration that produces a 50% inhibition of apo B secretion in the HepG2 cells.

Structure (SMILES) | IC50 [1] [nM] | IC50 [2] [nM]
Cc1cccc(C(=O)Nc2cccc(OC3CCN(C(=O)OCc4ccccc4)CC3)c2)c1-c1ccc(OC(F)(F)F)cc1 [Example 7, phenylmethyl 4-[3-[[[6-methyl-4′-(trifluoro-methoxy)[1,1′-biphenyl]-2-yl]carbonyl]-amino]phenoxy]-1-piperidinecarboxylate] | 45.2 | 17
Cc1cccc(C(=O)Nc2cccc(OC3CCN(C(=O)OCC(C)C)CC3)c2)c1-c1ccc(OC(F)(F)F)cc1 [Example 8, 2-methylpropyl 4-[3-[[[6-methyl-4′-(trifluoromethoxy)[1,1-biphenyl]-2-yl]carbonyl]amino]phenoxy]-1-piperidine-carboxylate] | 55.5 | 25.2
Cc1cccc(C(=O)Nc2cccc(OC3CCN(C(=O)Oc4ccc([N+](=O)[O-])cc4)CC3)c2)c1-c1ccc(OC(F)(F)F)cc1 [Example 9, 4-nitrophenyl 4-[3-[[[6-methyl-4′-(trifluoro-methoxy)[1,1′-biphenyl]-2-yl]carbonyl]-amino]phenoxy]-1-piperidinecarboxylate] | 51.8 | 7.9
CSC(=O)N1CCC(Oc2cccc(NC(=O)c3cccc(C)c3-c3ccc(OC(F)(F)F)cc3)c2)CC1 [Example 10] | 39.2 | 12.2
CCNC(=O)N1CCC(Oc2cccc(NC(=O)c3cccc(C)c3-c3ccc(OC(F)(F)F)cc3)c2)CC1 [Example 12, N-ethyl-4-[3-[[[6-methyl-4′-(trifluoro-methoxy)[1,1′-biphenyl]-2-yl]carbonyl]-amino]phenoxy]-1-piperidinecarboxamide] | 86.9 | 53
Cc1cccc(C(=O)Nc2cccc(OC3CCN(S(=O)(=O)C(C)C)CC3)c2)c1-c1ccc(OC(F)(F)F)cc1 [Example 14, 6-methyl-N-[3-[[1-[(1-methyl-ethyl)sulfonyl]-4-piperidinyl]oxy]phenyl]-4′-(trifluoromethoxy)[1,1′-biphenyl]-2-carboxamide] | 114 | 62.7
Cc1cccc(C(=O)Nc2cccc(OC3CCN(S(=O)(=O)c4ccccc4)CC3)c2)c1-c1ccc(OC(F)(F)F)cc1 [Example 15, 6-methyl-N-[3-[[1-(phenylsulfonyl)-4-piperidinyl]oxy]phenyl]-4′-(trifluoro-methoxy)[1,1′-biphenyl]-2-carboxamide] | 55.6 | 28.2
Cc1cccc(C(=O)Nc2cccc(OC3CCN(S(=O)(=O)Cc4ccccc4)CC3)c2)c1-c1ccc(OC(F)(F)F)cc1 [Example 16] | 42.5 | 15.9
CCCCS(=O)(=O)N1CCC(Oc2cccc(NC(=O)c3cccc(C)c3-c3ccc(OC(F)(F)F)cc3)c2)CC1 [Example 22] | 45 | 12.7
COc1ccc(NC(=O)N2CCC(Oc3cccc(NC(=O)c4cccc(C)c4-c4ccc(OC(F)(F)F)cc4)c3)CC2)cc1 [Example 26] | 72.8 | 75.8
COC(=O)c1ccccc1NC(=O)N1CCC(Oc2cccc(NC(=O)c3cccc(C)c3-c3ccc(OC(F)(F)F)cc3)c2)CC1 [Example 36, methyl 2-[[[4-[3-[[[6-methyl-4′-(trifluoro-methoxy)[1,1′-biphenyl]-2-yl]carbonyl]-amino]phenoxy]-1-piperidinyl]carbonyl]-amino]benzoate] | 51.3 | 67.8
Cc1cccc(C(=O)Nc2cccc(OC3CCN(C(=O)NCCc4ccccc4)CC3)c2)c1-c1ccc(OC(F)(F)F)cc1 [Example 40, 4-[3-[[[6-methyl-4′-(trifiuoromethoxy)[1,1′-biphenyl]-2-yl]carbonyl]amino]phenoxy]-N-(2-phenylethyl)-1-piperidinecarbox-amide] | 69.1 | 13.7
CCCCCCNC(=O)N1CCC(Oc2cccc(NC(=O)c3cccc(C)c3-c3ccc(OC(F)(F)F)cc3)c2)CC1 [Example 41, N-hexyl-4-[3-[[[6-methyl-4′-(trifluorometh-oxy)[1,1′-biphenyl]-2-yl]carbonyl]amino]-phenoxy]-1-piperidinecarboxamide] | 45.5 | 33.1
CCCCOC(=O)CNC(=O)N1CCC(Oc2cccc(NC(=O)c3cccc(C)c3-c3ccc(OC(F)(F)F)cc3)c2)CC1 [Example 44, butyl N-[[4-[3-[[[6-methyl-4′-(trifluorometh-oxy)[1,1′-biphenyl]-2-yl]carbonyl]amino]-phenoxy]-1-piperidinyl]carbonyl]glycinate] | 171 | 7.4
COc1ccc(CNC(=O)N2CCC(Oc3cccc(NC(=O)c4cccc(C)c4-c4ccc(OC(F)(F)F)cc4)c3)CC2)cc1 [Example 52, N-[(4-methoxyphenyl)methyl]-4-[3-[[[6-methyl-4′-(trifluoromethoxy)[1,1′-biphenyl]-2-yl]carbonyl]amino]phenoxy]-1-piperidinecarboxamide] | 195 | 66.3
COC(=O)c1ccc(NC(=O)N2CCC(Oc3cccc(NC(=O)c4cccc(C)c4-c4ccc(OC(F)(F)F)cc4)c3)CC2)cc1 [Example 55, methyl 4-[[[4-[3-[[[6-methyl-4′-(trifluoro-methoxy)[1,1′-biphenyl]-2-yl]carbonyl]-amino]phenoxy]-1-piperidinyl]carbonyl]-amino]benzoate] | 208 | 46.6
Cc1cccc(C(=O)Nc2cccc(OC3CCN(C(=O)Nc4ccc5c(c4)OCO5)CC3)c2)c1-c1ccc(OC(F)(F)F)cc1 [Example 56, N-1,3-benzodioxol-5-yl-4-[3-[[[6-methyl-4′-(trifluoromethoxy)[1,1′-biphenyl]-2-yl]-carbonyl]amino]phenoxy]-1-piperidine-carboxamide] | 146 | 37.6
COC(=O)N1CCC(Oc2cccc(NC(=O)c3ccccc3-c3ccc(C(F)(F)F)cc3)c2)CC1 [Example 72, methyl 4-[3-[[[4′-(trifluoromethyl)[1,1′-biphenyl]-2-yl]carbonyl]amino]phenoxy]-1-piperidinecarboxylate] | 42.2 | 4.6
COCCOC(=O)N1CCC(Oc2cccc(NC(=O)c3cccc(C)c3-c3ccc(OC(F)(F)F)cc3)c2)CC1 [Example 73, 2-methoxyethyl 4-[3-[[[6-methyl-4′-(trifluoromethoxy)[1,1′-biphenyl]-2-yl]-carbonyl]amino]phenoxy]-1-piperidine-carboxylate] | 33.3 | 1.6
COCCOC(=O)N1CCC(Oc2cccc(NC(=O)c3ccccc3-c3ccc(OC(F)(F)F)cc3)c2)CC1 [Example 74] | 110 | 83
COCCOC(=O)N1CCC(Oc2cccc(NC(=O)c3ccccc3-c3ccc(C(F)(F)F)cc3)c2)CC1 [Example 75, 2-methoxyethyl 4-[3-[[[4′-(trifluoromethyl)-[1,1′-biphenyl]-2-yl]carbonyl]amino]-phenoxy]-1 piperidinecarboxylate] | 130 | 39.8
COc1ccc(C(=O)N2CCC(Oc3cccc(NC(=O)c4cccc(C)c4-c4ccc(OC(F)(F)F)cc4)c3)CC2)cc1 [Example 98, N-[3-[[1-(4-methoxybenzoyl)-4-piperidin-yl]oxy]phenyl]-6-methyl-4′-(trifluorometh-oxy)[1,1′-biphenyl]-2-carboxamide] | 101 | 67.1
Cc1cccc(C(=O)Nc2cccc(OC3CCN(C(=O)c4ccno4)CC3)c2)c1-c1ccc(OC(F)(F)F)cc1 [Example 100, N-[3-[[1-(5-isoxazolylcarbonyl)-4-piperi-dinyl]oxy]phenyl]-6-methyl-4′-(trifluoro-methoxy)[1,1′-biphenyl]-2-carboxamide] | 139 | 54.1
